Consider 14 molecules from patent US20090239845A1, “PYRAZOLE COMPOUNDS AS PROSTAGLANDIN RECEPTORS LIGANDS” (priority 2005, published 2009).

Where a name gives a salt, the structure may show the parent alone.

One assay deals with T1, human EP3 receptor (Homo sapiens, UniProt P43115).
T1 construct: expressed in transfected cells; host or cells: CHO-K1
T1 sequence (P43115 1-390): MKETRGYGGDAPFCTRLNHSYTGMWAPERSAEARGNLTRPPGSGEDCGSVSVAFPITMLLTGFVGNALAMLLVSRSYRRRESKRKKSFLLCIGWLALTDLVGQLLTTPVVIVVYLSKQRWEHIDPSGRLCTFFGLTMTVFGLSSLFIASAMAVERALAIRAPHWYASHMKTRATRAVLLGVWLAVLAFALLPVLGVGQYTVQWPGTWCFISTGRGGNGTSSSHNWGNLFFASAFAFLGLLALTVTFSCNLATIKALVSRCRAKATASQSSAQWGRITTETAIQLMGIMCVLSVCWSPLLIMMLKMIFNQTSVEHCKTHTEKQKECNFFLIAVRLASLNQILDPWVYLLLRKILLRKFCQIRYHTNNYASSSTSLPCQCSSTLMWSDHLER
Nature of the assay: human EP3 calcium mobilisation assay. The settings on record: negative logarithm10 of the antagonist dissociation constant; CHO-K1 cells, PGE2; free bases or sodium salts; averages of a number of experiments; read-out: functional pKi value (converted). In kind it is cell-based. How it is done:
Briefly, the antagonist properties of compounds are assessed by their ability to inhibit the mobilisation of intracellular calcium ([Ca^2+]i) in response to activation of EP1 or EP3 receptors by the natural agonist hormone prostaglandin E2 (PGE2). Increasing concentrations of antagonist reduce the amount of calcium that a given concentration of PGE2 can mobilise. The net effect is to displace the PGE2 concentration-effect curve to higher concentrations of PGE2. The amount of calcium produced is assessed using a calcium-sensitive fluorescent dye such as Fluo-4, AM and a suitable instrument such as a Fluorimetric Imaging Plate Reader (FLIPR). Increasing amounts of [Ca^2+]i produced by receptor activation increase the amount of fluorescence produced by the dye and give rise to an increasing signal. The signal may be detected using the FLIPR instrument and the data generated may be analysed with suitable curve-fitting software.
The human EP1 or EP3 calcium mobilisation assay (hereafter referred to as ‘the calcium assay’) utilises Chinese hamster ovary-K1 (CHO-K1) cells into which a stable (pCIN; BioTechniques 20 (1996): 102-110) vector containing either EP1 or EP3 cDNA has previously been transfected. Cells are cultured in suitable flasks containing culture medium such as DMEM:F-12 supplemented with 10% v/v foetal calf serum, 2 mM L-glutamine, 0.25 mg/ml geneticin, 100 μM flurbiprofen and 10 μg/ml puromycin.
For assay, cells are harvested using a proprietary reagent that dislodges cells such as Versene. Cells are re-suspended in a suitable quantity of fresh culture media for introduction into a 384-well plate. Following incubation for 24 hours at 37° C. the culture media is replaced with a medium containing Fluo-4 and the detergent pluronic acid, and a further incubation takes place. Concentrations of compounds are then added to the plate in order to construct concentration-effect curves. This may be performed on the FLIPR in order to assess the agonist properties of the compounds. Concentrations of PGE2 are then added to the plate in order to assess the antagonist properties of the compounds.
The data so generated may be analysed by means of a computerised curve-fitting routine. The concentration of compound that elicits a half-maximal inhibition of the calcium mobilisation induced by PGE2 (plC50) may then be estimated.
A general note: Calcium flux is commonly read through the fluorescence of an indicator in the cells.
Consider `CCOC(CNC(=O)c1cc(C)n(Cc2cc(Cl)ccc2OCC(C)C)n1)OCC` [Example 387, N-[2,2-Bis(ethyloxy)ethyl]-1-({5-chloro-2-[(2-methylpropyl)oxy]phenyl}methyl)-5-methyl-1H-pyrazole-3-carboxamide], for which the Ki was 158 to 316 nM.

`Cc1cc(NC(=O)C(F)(F)F)nn1Cc1cc(Cl)ccc1OCC(C)C` [Example 95, N-[1-({5-Chloro-2-[(2-methylpropyl)oxy]phenyl}methyl)-5-methyl-1H-pyrazol-3-yl]-2,2,2-trifluoroacetamide]: the Ki is 158 to 316 nM.

On to `Cc1cc(NC(=O)c2ccccc2CO)nn1Cc1cc(Cl)ccc1OCC(C)C` [Example 183, N-[1-({5-Chloro-2-[(2-methylpropyl)oxy]phenyl}methyl)-5-methyl-1H-pyrazol-3-yl]-2-(hydroxymethyl)benzamide], for which the Ki was 158 to 316 nM.

For the molecule `Cc1cc(N(C)C(=O)c2ccccc2)nn1Cc1cc(Cl)ccc1OCc1ccccc1` [Example 180, N-[1-({5-Chloro-2-[(phenylmethyl)oxy]phenyl}methyl)-5-methyl-1H-pyrazol-3-yl]-N-methylbenzamide], the Ki is 158 to 316 nM.

Take `Cc1cc(N2Cc3ccccc3C2=O)nn1Cc1cc(Cl)ccc1OCC(C)C` [Example 184, 2-[1-({5-Chloro-2-[(2-methylpropyl)oxy]phenyl}methyl)-5-methyl-1H-pyrazol-3-yl]-2,3-dihydro-1H-isoindol-1-one]: the Ki is 158 to 316 nM.

On to `Cc1cc(-c2cn3ccccc3n2)nn1Cc1cc(Cl)ccc1OCC(C)C` [Example 364, 2-[1-({5-Chloro-2-[(2-methylpropyl)oxy]phenyl}methyl)-5-methyl-1H-pyrazol-3-yl]imidazo[1,2-a]pyridine hydrochloride], for which the Ki was 158 to 316 nM.

Take `CCC(C)NC(=O)Oc1cc(C)n(Cc2cc(Cl)ccc2OCC(C)C)n1` (stereo not drawn) [Example 50, 1-({5-Chloro-2-[(2-methylpropyl)oxy]phenyl}methyl)-5-methyl-1H-pyrazol-3-yl (1-methylpropyl)carbamate]: the Ki is 158 to 316 nM.

Turning to `Cc1cc(OC(=O)NC2CCCC2)nn1Cc1cc(Cl)ccc1OCC(C)C` [Example 52, 1-({5-Chloro-2-[(2-methylpropyl)oxy]phenyl}methyl)-5-methyl-1H-pyrazol-3-yl cyclopentylcarbamate], the Ki is 158 to 316 nM.

Consider `Cc1cc(N2CCN(Cc3ccccn3)CC2=O)nn1Cc1cc(Cl)ccc1OCC(C)C` [Example 227, 1-[1-({5-Chloro-2-[(2-methylpropyl)oxy]phenyl}methyl)-5-methyl-1H-pyrazol-3-yl]-4-(2-pyridinylmethyl)-2-piperazinone dihydrochloride], for which the Ki is 158 to 316 nM.

In the case of `Cc1cc(N(C)C(=O)OC(C)(C)C)nn1Cc1cc(Cl)ccc1OCc1ccccc1` [Example 75, 1,1-Dimethylethyl[({5-chloro-2-[(phenylmethyl)oxy]phenyl}methyl)-5-methyl-1H-pyrazol-3-yl]methylcarbamate], the Ki was 158 to 316 nM.

Consider `Cc1cc(NC(=O)c2cccc(C=O)c2)nn1Cc1cc(Cl)ccc1OCC(C)C` [Example 187, N-[1-({5-Chloro-2-[(2-methylpropyl)oxy]phenyl}methyl)-5-methyl-1H-pyrazol-3-yl]-3-formylbenzamide], for which the Ki was 158 to 316 nM.

The subject of the next assay is rodent model of post-operative pain.
Experiment: not given
The settings on record: Anesthesia and Analgesia 2001, 92, 233-238; cited from earlier work.
In the case of `Cc1cc(Cl)ccc1S(=O)(=O)NC[C@H]1C2CCC(CC2)[C@@H]1/C=C\CCCC(=O)O` [ONO-8711], the mechanical hyperalgesia entry was “inhibits mechanical hyperalgesia”.

The next assay relates to gastric lesions induced by taurocholate acid, aspirin or indomethacin.
Experiment: not given
The settings on record: rats, J Pharmacol Exp Ther 1992, 263(1), 374-380; cited from earlier work.
As to `O=C(O)Cc1ccc(CCNS(=O)(=O)c2ccc(Cl)cc2)cc1` [BM 13505], the gastric lesions entry is recorded as “inhibit gastric lesions”.

Regarding `O=C(O)CCc1ccccc1CC1C2CCC(O2)C1c1nc(C(=O)NCCCCC2CCCCC2)co1` (stereo not drawn) [SQ 33961], the gastric lesions result is recorded as “inhibit gastric lesions”.

The subject of a further assay is rat model of chronic constriction injury.
Experiment: not given
The settings on record: Anesthesia and Analgesia 2001, 93, 1012-7; cited from earlier work.
For the molecule `Cc1cc(Cl)ccc1S(=O)(=O)NC[C@H]1C2CCC(CC2)[C@@H]1/C=C\CCCC(=O)O` [ONO-8711], the hyperalgesia and allodynia result was “reduces hyperalgesia and allodynia”.
